Key:
[1] = target: T1, Orexin/Hypocretin receptor type 1 (Homo sapiens, UniProt O43613); assay type: functional, cell-based, RBL-2H3
T1 sequence (O43613 whole entry): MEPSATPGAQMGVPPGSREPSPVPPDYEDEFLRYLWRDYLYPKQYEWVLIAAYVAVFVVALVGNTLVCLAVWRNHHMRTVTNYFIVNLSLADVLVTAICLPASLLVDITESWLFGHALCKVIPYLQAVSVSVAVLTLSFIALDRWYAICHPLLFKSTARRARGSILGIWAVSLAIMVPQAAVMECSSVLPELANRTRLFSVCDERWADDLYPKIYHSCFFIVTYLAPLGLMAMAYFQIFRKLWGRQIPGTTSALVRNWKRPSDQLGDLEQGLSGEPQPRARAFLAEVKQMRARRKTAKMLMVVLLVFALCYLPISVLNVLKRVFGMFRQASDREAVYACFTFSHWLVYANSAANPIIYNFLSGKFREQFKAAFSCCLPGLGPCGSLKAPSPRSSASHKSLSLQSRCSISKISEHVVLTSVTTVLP

Orexin receptor type 2 = target: T2, Orexin receptor type 2 (Homo sapiens, UniProt O43614); assay type: functional, cell-based, RBL-2H3
T2 sequence (O43614 whole entry): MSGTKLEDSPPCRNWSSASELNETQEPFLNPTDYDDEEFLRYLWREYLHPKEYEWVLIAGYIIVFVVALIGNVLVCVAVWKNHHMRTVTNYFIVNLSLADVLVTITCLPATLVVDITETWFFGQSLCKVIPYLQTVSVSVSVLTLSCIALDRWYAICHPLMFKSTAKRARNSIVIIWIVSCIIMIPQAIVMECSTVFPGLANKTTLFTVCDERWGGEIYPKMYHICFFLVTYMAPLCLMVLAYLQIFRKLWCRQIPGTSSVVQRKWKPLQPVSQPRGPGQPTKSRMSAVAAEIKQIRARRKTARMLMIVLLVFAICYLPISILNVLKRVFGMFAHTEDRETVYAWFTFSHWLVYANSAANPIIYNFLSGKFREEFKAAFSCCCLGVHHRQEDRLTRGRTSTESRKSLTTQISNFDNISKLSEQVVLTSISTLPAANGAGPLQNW

| SMILES | IC50 [1] | IC50 (Orexin receptor type 2) |
| --- | --- | --- |
| O=C(N[C@H]1CCC[C@@H]1Nc1ccc(OC(F)(F)F)cn1)c1cc(Cl)ccc1-n1nccn1 | 406 nM | > 10000 nM |
| Cc1ccc(-n2nccn2)c(C(=O)N[C@H]2CCC[C@@H]2Nc2ccc(Cl)cn2)c1 | 270 nM | > 10000 nM |
| COc1cccc(Br)c1C(=O)N[C@H]1CCC[C@@H]1Nc1cnc(C(F)(F)F)cn1 | 367 nM | > 10000 nM |

Source: ChEMBL document CHEMBL3886283, “Cycloalkyl and heterocycloalkyl compounds as orexin receptor antagonists” (2015)
